Measured values taken from ChEMBL document CHEMBL5728379, “Pyrido five-element aromatic ring compound, preparation method therefor and use thereof” (2021).

Assay: Enzyme-Linked Immunosorbent Assay: EZH2 wild type: Experimental method: avdin of a final concentration of 100 nM was used to coat 96-well plate at 10 μL/well, placed in a wet box and shaken overnight, and then 100 μL 3% BSA per well was added and blocked for 1 h at room temperature. PRC2 complex (EZH2/EED/SUZ12/RbAp48/AEBP2), H3 (21-44) me0 substrate, methyl donor SAM and compound were added into each well of the blocked 96-well plate. The total reaction system was 100 μL, placed in a wet box and allowed to react for 1 h on shaker at room temperature. The plate was washed with TBS-T [20 mM Tris-HCl (pH 7.2-7.4, room temperature), 150 mM NaCl, 0.1% (v/v) Tween-20] for 3 times, blocked with 3% BSA for 10 min, and anti-H3K27me3 antibody was added and incubated for 1 h in a wet box on shaker at room temperature. The plate was washed again with TBS-T for 3 times, and blocked with 3% BSA per well for 10 min. Horseradish peroxidase-labeled secondary antibody was added and reacted in a wet box at room temperature for 1 h, and finally, washed with TBS-T for 3 times. 2 mg/ml OPD color developing solution (1004/well) was added for coloring, and the reaction was stopped with 2M H2SO4 (50 μL/well). The plate was read by a plate reader at 490 nm and IC50 of the compound was calculated using SoftMax Pro 5.4.1 software.

In the case of `Cc1cc(C)c(CNC(=O)c2cc3cccn3c(C(C)OCc3ccnn3C)c2C)c(=O)[nH]1` (stereo unspecified), the IC50 is reported as < 100 nM.
